Patent US20120172375A1, “COMPOUNDS AND METHODS OF PROMOTING OLIGODENDROCYTE PRECURSOR DIFFERENTIATION” (priority 2008, published 2012)
“Also recorded” adds a separate entry of the source.

Assays:
[1] = tested on: oligodendrocyte progenitors; assay: BrdU incorporation, proliferation of oligodendrocyte progenitors; type: cell-based, mouse; conditions: 10 nM, 48 h; Average±SEM; control 26.3±3.2; not statistically significant
Description: A feasible effect of small molecules on oligodendrocyte progenitor cells is the induction of proliferation. We studied this possibility by treating cultures of oligodendrocyte progenitors, previously exposed to compounds A, A-7 and B (10 nM, 48 h) with BrdU (Bromodeoxyuridine, 10 μM added 24 hrs before the end of the treatment) and posterior immunostaining to detect BrdU positive cells. This is a well established method to determine cell division and proliferation by incorporation of the […]. After counting BrdU positive oligodendrocytes versus total cells in three independent experiments we observed a slight tendency of increased proliferation in cells treated with compounds A, A-7 or B. However, there were not statistically significant differences between treated and control cells (control: 26.3±3.2; compound A: 29.2±4.0; compound A-7: 28,9±2.1; compound B: 27.6±6.7; Values are represented as Average±SEM).

[2] = tested on: oligodendrocyte precursors; assay: Oligodendrocyte precursor maturation after pre-incubation with PI3K, mTOR or Akt inhibitors (MBP immunostaining); type: cell-based; conditions: 48 h treatment; for effect of Akt inhibitor on compound-induced differentiation: Akt 1/2 inhibitor 1 μM added 1 hr before; for effect of PI3K inhibition on compound-induced oligodendrocyte precursor maturation: wortmannin 0.1 μM added 1 hr before
Description: Akt signaling has been extensively studied, and activation of phosphatidyl-inositol-3-kinase (PI3K) is generally accepted as a canonical upstream Akt activator. Downstream targets of Akt have also been identified and those include GSK, mTOR, p70SK, ASK amongst many others. In order to determine the relevance of […], signaling in the phosphorylation of Akt induced by compounds A and B and possible downstream targets of phosphorylated Akt, we pre-incubated the cells with inhibitors of PI3K (wortmannin, 0.1 μM), mTOR (rapamycin 0.1 μM) or a direct Akt ½ inhibitor (trifluoroacetate salt hydrate, 1 μM), all added 1 hr before the treatment with compounds A or B.
Cells were immunostained for MBP and after 48 h treatment with compound A or B the cells underwent morphology changes indicative of cell differentiation that included the generation of multiple cell processes and development of membranous structures.

[3] = tested on: tg[Plp:EGFP] zebrafish embryos; assay: Oligodendrocyte development in tg[Plp:EGFP] zebrafish embryos; type: in vivo; conditions: 1, 10 and 100 nM from 24 hpf, analysed at 72 hpf
Description: Transgenic-Proteolipid protein-enhanced green fluorescence protein (tg[plp:EGFP]) zebrafish was raised and maintained (Yoshida and Macklin, J. Neurosci Res, 81:1, 2005). Embryos were collected and staged by hour post fertilization (hpf). Compounds were added at 24 hpf stage at a concentration of 10 nM, 100 nM and 1 μM. After 48 hrs (72 hpf stage), zebrafish embryos were anesthetized in 0.02% tricaine, fixed in 4% paraformaldehyde, and washed in phosphate buffered saline (PBS). After treating with 10% Triton X-100 for 30 minutes, embryos were washed in PBS and blocked with 3% goat serum. Embryos were then incubated at 4° C. overnight with FITC-conjugated goat anti-GFP antibody (Abcam, Cambridge, Mass.) at a concentration of 1:1000. After several washes with PBS, the embryos were embedded in 100% glycerol and visualized on a Leica SP5 confocal microscope.
Embryos from transgenic-Plp-EGFP (tg[Plp:EGFP]) zebrafish were treated starting at 24 hours post fertilization (hpf) with compounds A, A-7 or B (1, 10 and 100 nM) or vehicle (DMSO). At 72 hpf effective treatments were analyzed by confocal microscopy after fixation and EGFP immunostaining of selected positive compounds.

[4] = Detection of small molecules in blood plasma and brain tissue by mass spectrometry; conditions: for blood plasma level, average / brain level, average: 4 mice; for blood plasma level, average / brain level, average / Biological sample concentration (nM), Brain / Biological sample concentration (nM), Plasma: 100 mg/kg i.p., two doses in 5 days; for crossing of the blood brain barrier: two I.P. doses in a five day-term
Description: The signal was optimized for each compound for positive or negative ionization by ESI (Electrospray ionization). A standard curve what made with pure compound solutions in DMSO up to 10 ng/ml. A MS2 scan was used to identify the progenitor ion and a product ion analysis was used to identify the best fragment for analysis and to optimize the collision energy. […] Samples were precipitated in 3 volumes of methanol with internal standard, centrifuged, and filtered. Filtered samples were analyzed by LC/MS/MS using either an Agilent 6410 mass spectrometer coupled with an Agilent 1200 HPLC and a CTC PAL chilled autosampler, all controlled by MassHunter software (Agilent), or an AB12000 mass spectrometer coupled with an Agilent 1100 HPLC and a CTC PAL chilled autosampler, all controlled by Analyst software (ABI). After separation on a C18 reverse phase HPLC column (Agilent, Waters, or equivalent) using an acetonitrile-water gradient system, peaks were analyzed by mass spectrometry (MS) using ESI ionization in MRM (Multiple Reaction Monitoring) mode.
4 mice per condition were injected i.p. (100 mg/kg), following the same experimental paradigm performed for the tissue analysis (two doses m a 5 days time).

Solubility = type: physicochemical

Row | Biological sample concentration (nM), Plasma ([4]; Sample No. 3) [nM] | SMILES | BrdU positive oligodendrocytes versus total cells [1] | effect of Akt inhibitor on compound-induced differentiation [2] | effect of PI3K inhibition on compound-induced oligodendrocyte precursor maturation [2] | number of oligodendrocyte progenitor cells and fluorescence intensity in embryos [3] | blood plasma level, average [4] [nM] | brain level, average [4] [nM] | Biological sample concentration (nM), Brain ([4]; Sample No. 1) [nM] | Biological sample concentration (nM), Plasma ([4]; Sample No. 1) [nM] | Biological sample concentration (nM), Brain ([4]; Sample No. 2) [nM] | Biological sample concentration (nM), Plasma ([4]; Sample No. 2) | Biological sample concentration (nM), Brain ([4]; Sample No. 3) [nM] | Biological sample concentration (nM), Brain ([4]; Sample No. 4) [nM] | Biological sample concentration (nM), Plasma ([4]; Sample No. 4) [nM] | crossing of the blood brain barrier [4] | solubility (Solubility) | effect of mTOR inhibition on compound-induced oligodendrocyte precursor maturation ([2]; rapamycin 0.1 μM added 1 hr before)
1 | 129 | CCS(=O)(=O)N1CCN(C(=O)COc2ccc(-c3ccccc3)cc2)CC1 [Compound A, 1-[(4-biphenylyloxy)acetyl]-4-(ethylsulfonyl)piperazine] | 29.2±4.0 | completely blocked | did not block | clear increase; also recorded: increased accumulation of oligodendrocytes and enhanced differentiation | 131.3 | 9.2 | 4.6 | 90 | 14.7 | 149 nM | 13.2 | 4.3 | 157 | effectively crossed the blood brain barrier |  | 
2 |  | CC(C)N1CCN(C(=O)COc2ccc(-c3ccccc3)cc2)CC1 [Compound A-7, 1-(Biphenyl-4-yloxy)acetyl-4-isopropylpiperazine] |  |  |  | clear increase; also recorded: increased accumulation of oligodendrocytes and enhanced differentiation | 9.2 | 13.5 | 16.6 | 4.2 | 16.8 | 5.3 L nM | 4.21 | 6.2 | 3.6 | effectively crossed the blood brain barrier | high | 
3 |  | O=[N+]([O-])c1ccc(F)c(NS(=O)(=O)c2ccc(F)cc2)c1 [Compound B, 4-fluoro-N-(2-fluoro-5-nitrophenyl)benzenesulfonamide] | 27.6±6.7 | completely blocked | did not block |  |  |  |  |  |  |  |  |  |  |  |  | totally avoided
